l = locked nucleic acid (LNA); d = 2'-deoxy (DNA)
Columns and labels:
[1] = tested on: AMO1/abzb xenografts; assay: In vivo tumor growth of Bortezomib-refractory AMO1/abzb xenografts (IVIS); set-up: species or system mice; settings: I.P. Bortezomib 1 mg/kg; Bortezomib-refractory model
Source text: Male CB-17 severe combined immunodeficient (SCID) mice (6- to 8-weeks old; Harlan Laboratories, Inc., Indianapolis) were housed and monitored in our Animal Research Facility. All experimental procedures and protocols had been approved by the Institutional Ethical Committee (Magna Graecia University) and conducted according to protocols approved by the National Directorate of Veterinary Services (Italy). In accordance with institutional guidelines, mice were sacrificed when tumors reached 2 cm in diameter or in the event of paralysis or major compromise, to prevent unnecessary suffering. Animal experimental procedures have been performed as in previous reports (Di Martino et al, CCR 2012; Di Martino el al. Oncotarget 2013, Di Martino et al PlosOne 2014). […] Mice were also inoculated with 5×10^6 luciferase gene-marked U266, AMO-1, AMO-1/abzb, treatments were performed intraperitoneally (i.p.), and tumor volume were measured by IVIS Lumina II.
In vivo anti-MM activity of LNA gapmer_06 was next evaluated in NOD/SCID mice bearing subcutaneous AMO1 xenografts. […] Tumors volume were measured using IVIS LUMINA II Imaging We next evaluate the in vivo activity in Bortezomib-refractory model of human MM. […] Tumors volume were measured using IVIS LUMINA II Imaging System.

[2] = tested on: miR-17-92 primary transcript (pri-miRs) and mature miR-17-92 cluster members; assay: q-RT-PCR of miR-17-92 member family and two pri-miRs after transfection of MM cells; format: cell-based, Human; settings: 48 hours after transfection with 25 nM; NCI-H929 and RPMI-8226 cells; relative to RNase-free water
Protocol: 3×10^5 cells were transfected using Neon Transfection System (Invitrogen, Calif.,U.S.), (2 pulses at 1150, 30ms). The transfection efficiency evaluated by flow-cytometric analysis relative to a FAM dye—labeled anti-miR—negative control reached 85% to 90%.
Reverse transcription (RT) of both primary and mature miRNAs was performed using TaqMan® MicroRNA Assays, following a procedure for multiplexing the RT step (Life Technologies, Publication Part Number 4465407). Briefly, 500 ng of total RNA, prepared with the TRIzol® Reagent (Invitrogen), underwent reverse transcription by the Taq-Man® MicroRNA RT Kit. In this reaction, the RT primer pool was composed by the individual RT primers for each microRNA belonging to the miR-17-92 cluster and two RT primers to allow the reverse transcription of the miR-17-92 primary miRNA. Real-time PCR was performed using TaqMan® MicroRNA Assays together with the TaqMan® Universal PCR Master Mix on an ViiA7 System (Life Technologies). Both primary and mature microRNAs expressions were relatively quantified using the 2-ΔΔCt method (Applied Biosystems User Bulletin No. 2), and expressed as the relative quantity of target miRNA normalized to the RNU44 (assay ID 001094) housekeeping gene. Comparative real-time polymerase chain reaction (RT-PCR) was performed in triplicate, including no-template controls. Relative expression was calculated using the comparative cross threshold (Ct) method.
By the use of a custom q-RT-PCR plate specifically designed by us to detect all six mature miR-17-92 members and the primary transcript by two different assays (pri-mir-17/18a/19a and pri-mir-19b1/20a/92a1), we quantified in a panel of 11 MM cell lines the levels of the different miRNAs and pri-miRs.

Row | Compound | tumor growth (IVIS tumor volume) [1] | downregulation of primary and mature miRNA sequences (q-RT-PCR) [2]
1 | CC(C)C[C@H](NC(=O)[C@H](Cc1ccccc1)NC(=O)c1cnccn1)B(O)O [Bortezomib, reference compound] | no effect on tumor-growth | –
2 | gapmer_15: LNA/DNA gapmer, SEQ ID 7 (16 mer): +A*+G*+C*A*C*T*C*A*A*C*A*T*C*+A*+G*+C (AGCACTCAACATCAGC; sugars from the 5' end l3 d10 l3, all phosphorothioate, methylation of C not given here) | – | strongest downregulation of primary transcripts and miR-17-92 mature members
